These results are taken from patent publication US7816371B2, “Bicycloheteroaryl compounds as P2X7 modulators and uses thereof” (Renovis, Inc., priority 2006, dated 2010).

The term IC50 denotes the concentration that gives 50% inhibition. A word on the solubility: it is the concentration that dissolves in the medium under given conditions.

The target of data set [1] is T1, P2X7 receptor (Homo sapiens, UniProt Q99572).
T1 construct: host or cells: THP-1 cells differentiated with LPS and IFN-γ
T1 sequence (Q99572 1-595): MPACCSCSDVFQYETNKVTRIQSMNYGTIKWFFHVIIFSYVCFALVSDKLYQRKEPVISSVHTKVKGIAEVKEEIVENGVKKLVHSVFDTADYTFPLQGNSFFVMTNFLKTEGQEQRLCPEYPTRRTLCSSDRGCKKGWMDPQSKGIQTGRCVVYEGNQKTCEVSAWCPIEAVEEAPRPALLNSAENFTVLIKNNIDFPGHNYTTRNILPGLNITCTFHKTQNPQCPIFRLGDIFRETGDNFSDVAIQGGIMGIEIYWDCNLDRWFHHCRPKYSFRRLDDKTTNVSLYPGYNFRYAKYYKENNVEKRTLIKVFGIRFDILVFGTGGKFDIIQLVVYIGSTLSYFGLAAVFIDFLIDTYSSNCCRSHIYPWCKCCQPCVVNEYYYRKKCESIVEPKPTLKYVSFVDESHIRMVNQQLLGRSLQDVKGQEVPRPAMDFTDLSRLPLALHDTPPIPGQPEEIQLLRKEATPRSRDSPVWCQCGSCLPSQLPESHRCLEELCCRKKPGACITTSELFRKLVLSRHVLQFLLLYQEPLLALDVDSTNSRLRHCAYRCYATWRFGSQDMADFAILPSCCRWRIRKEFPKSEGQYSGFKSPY
Description: IL-1β release assay in differentiated THP-1 cells stimulated with BzATP (Example 9); % inhibition and IC50. Format: cell-based. Particulars: THP-1 cells differentiated with LPS and IFN-γ, 30 min pretreatment, BzATP 250 uM, IL-1β by ELISA. In short, it runs like this:
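Differentiated THP-1 cells pretreated 30 min with compound in RPMI before BzATP stimulation. Supernatant IL-1β measured by ELISA. Percent inhibition derived from background-adjusted IL-1β of treated versus untreated cells.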
Background: An ELISA detects its analyte on a solid surface through an enzyme-linked reagent.

Data set [2] can be described thus: Determination of aqueous (kinetic) solubility. Type of data set: physicochemical. The settings on record: buffer pH 7.4, room temperature. Here is the method:
The mixture was vortexed for 1 hour and equilibrated overnight at room temperature. The mixture was filtered through a saturated filter and the filtrate was analyzed by LC/MS/MS.

A short description of data set [3]: Pharmacokinetic evaluation following intravenous and oral administration in rats (oral bioavailability). The settings on record: PO 1 to 5 mg/kg vs IV 1 mg/kg, AUCinf normalized to dose. Format: in vivo, Male Sprague-Dawley rats. Here is the method:
Male Sprague-Dawley rats are acclimatized for at least 24 hours prior to experiment initiation. […] During the first 3 hours of experimentation, the animals receive only water ad libitum. At least three animals each are tested for intravenous and oral dosage. For intravenous formulation, compounds were dissolved (0.25 to 1 mg/mL) in a mixture of 3% dimethyl sulfoxide, 40% PEG 400 and the rest percentage of 40% Captisol in water (w/v). The animals are weighed before dosing. The determined body weight is used to calculate the dose volume for each animal.
PO rats are typically dosed through oral gavage following the same dose volume formula as IV to achieve a dose level of 1 to 5 mg/kg. […] About 250 uL of blood is obtained at each time point from the animal. Equal volumes of 0.9% normal saline are replaced to prevent dehydration. The whole blood samples are maintained on ice until centrifugation. Blood samples are then centrifuged at 14,000 rpm for 10 minutes at 4° C. and the upper plasma layer transferred into a clean vial and stored at −80° C. The resulting plasma samples are then analyzed by liquid chromatography-tandem mass spectrometry. Following the measurement of plasma samples and dosing solutions, plasma concentration-time curve is plotted. […] The % F is reported as the mean % F of all animals dosed orally with the compound of the invention at the specified level (see Table 4 below).

With `Cc1ccc2c(c1NC(=O)Cc1ccc(C(F)(F)F)c(F)c1)CCN([C@H](C)CO)C2=O` [Compound 401, N-[6-Methyl-2-((R)-2-hydroxy-1-methyl-ethyl)-1-oxo-1,2,3,4-tetrahydro-isoquinolin-5-yl]-2-(3-fluoro-4-trifluoromethyl-phenyl)-acetamide], in data set [1], the IC50 came to 1.44 nM. Moreover, the solubility in data set [2] was above 75 µM.
Take `Cc1ccc2c(=O)n([C@H](C)CO)ccc2c1NC(=O)Cc1cccc(C(F)(F)F)c1F` [Compound 395]: the “Oral Bioavailability F (%)” value in data set [3] is recorded as “++ (26-50% F)”.
As to `O=C(Cc1ccc(Cl)c(C(F)(F)F)c1)Nc1cccc2c(=O)n(C[C@@H]3CCCN3)ccc12` [Compound 232, 2-(4-Chloro-3-trifluoromethyl-phenyl)-N-(1-oxo-2-(S)-1-pyrrolidin-2-ylmethyl-1,2-dihydro-isoquinolin-5-yl)-acetamide], the IC50 in data set [1] was found to be 10.7 nM.
Still for that read-out and setting: then `CC(C)(CO)n1ccc2c(NC(=O)Cc3ccc(C(F)(F)F)cc3F)cccc2c1=O` [Compound 370], with 134 nM; and `O=C(Cc1ccccc1)Nc1cccc2c(=O)n(CCO)ccc12` [Compound 76], with above 1000 nM.
